Reference: patent publication US5488060A, “Substituted thiadiazoles, compositions containing them and their use as antimicrobial and marine antifouling agents” (The Dow Chemical Company, priority 1994, dated 1996)
In brackets after ≈: the same amount, converted by molar mass. Like-named read-outs stand apart in the source and are kept apart here.

Assays:
Assay type in all cases: cell-based
[1] = tested on: Klebsiella pneumoniae (Kp); experiment: Minimum inhibitory concentration (MIC) in nutrient agar, Klebsiella pneumoniae
Method: (§1) The antimicrobial activity of the compounds of the present invention is set forth as the minimum inhibitory concentration (MIC) for the active compounds and is determined for nine (9) bacteria, using nutrient agar, and seven (7) yeast and fungi, using malt yeast agar. This determination is conducted using a one percent solution of the test compound prepared in a mixture of acetone and water.
(§2) Nutrient agar is prepared at pH 6.8, representing a neutral medium, and at pH 8.2, representing an alkaline medium. The nutrient agars are prepared by adding 23 g of nutrient agar to one-liter of deionized water. In addition, the alkaline medium is prepared by adjusting a 0.04M solution of N-[tris-(hydroxymethyl)methyl]glycine buffered deionized water with concentrated sodium hydroxide to a pH of 8.5.
(§3) The test tubes containing the agar are cooled in a water bath until the temperature of the agar is 48° C. Then, an appropriate amount of the one percent solution of the test compound is added (except in the controls where no compound is added) to the respective test tubes so that the final concentrations are 500, […], 100, 50, 25, 10, 5, 2.5, 1.0 and zero parts per million of the test compound in the agar, thus having a known concentration of test compound dispersed therein. The contents of the test tubes are then transferred to respective petri plates. After drying for 24 hours, the petri plates containing nutrient agar are inoculated with bacteria and those containing malt yeast agar are inoculated with yeast and fungi.
(§4) The inoculation with bacteria is accomplished by using the following procedure. Twenty-four hour-cultures of each of the bacteria are prepared by incubating the respective bacteria in tubes containing nutrient broth for 24 hours at 30° C. in a shaker. Dilutions of each of the 24 hour-cultures are made so that nine separate suspensions (one for each of the nine test bacteria) are made, each containing 10^8 colony forming units (CFU) per mL of suspension of a particular bacteria. Aliquots of 0.3 mL of each of the bacterial suspensions are used to fill the individual wells of Steer's Replicator. For each microbial suspension, 0.3 mL was used to fill three wells (i.e., three wells of 0.3 mL each) so that for the nine different bacteria, 27 wells are filled. The Steer's Replicator is then used to inoculate both the neutral and alkaline pH nutrient agar petri plates.
(§5) The inoculated petri plates are incubated at 30° C. for 48 hours and then read to determine if the test compound which is incorporated into the agar prevented growth of the respective bacteria.

Aspergillus niger (An) = experiment: Minimum inhibitory concentration (MIC) in malt yeast agar, Aspergillus niger
Method: as §1
(§6) Malt yeast agar is prepared at pH 5.5 by adding 3 g yeast extract and 45 g malt agar per liter of deionized water. The specific agar is dispensed in 30 mL aliquots into 25×200 mm test tubes, capped and autoclaved for 15 minutes at 115° C.
as §3
(§7) The inoculation with the yeast and fungi is accomplished as follows. Cultures of yeast and fungi are incubated for seven days on malt yeast agar at 30° C. These cultures are used to prepare suspensions by the following procedure. A suspension of each organism is prepared by adding 10 mL of sterile saline and 10 microliters of octylphenoxy polyethoxy ethanol to the agar slant of yeast or fungi. The sterile saline/octylphenoxy potyethoxy ethanol solution is then agitated with a sterile swab to suspend the microorganism grown on the slant. Each resulting suspension is diluted into sterile saline (1 part suspension: 9 parts sterile saline). Aliquots of these dilutions are placed in individual wells of Steer's Replicator and petri plates inoculated as previously described. The petri plates are incubated at 30° C. and read after 48 hours for yeast and 72 hours for fungi.

Proteus vulgaris (Pv) = experiment: Minimum inhibitory concentration (MIC) in nutrient agar, Proteus vulgaris; conditions: 48 h
Method: as §1, §2, §3, §4, §5

[2] = tested on: Penicillium chrysogenum (Pc); experiment: Minimum inhibitory concentration (MIC) in malt yeast agar, Penicillium chrysogenum; conditions: 72 h, pH 5.5, read-out: Minimum Inhibitory Concentration, PC
Method: as §1, §6, §3, §7

Fusarium oxysporum (Fo) = experiment: Minimum inhibitory concentration (MIC) in malt yeast agar, Fusarium oxysporum; conditions: pH 5.5; malt yeast agar, 30° C., 72 hours for fungi; read-out: Minimum Inhibitory Concentration, Fo
Method: as §1, §6, §3, §7

Candida albicans (Ca) = experiment: Minimum inhibitory concentration (MIC) in malt yeast agar, Candida albicans
Method: as §1, §6, §3, §7

[3] = tested on: Salmonella choleraesuis (Se); experiment: Minimum inhibitory concentration (MIC) in nutrient agar, Salmonella choleraesuis; conditions: Salmonella enterica, 48 h
Method: as §1, §2, §3, §4, §5

Trichoderma viride (Tv) = experiment: Minimum inhibitory concentration (MIC) in malt yeast agar, Trichoderma viride; conditions: 72 h, pH 5.5, read-out: Minimum Inhibitory Concentration, Tv
Method: as §1, §6, §3, §7

[4] = tested on: Pseudomonas aeruginosa (Pa); experiment: Minimum inhibitory concentration (MIC) in nutrient agar, Pseudomonas aeruginosa; conditions: 30° C., 48 hours, read-out: Minimum Inhibitory Concentration, Pa
Method: as §1, §2, §3, §4, §5

[5] = tested on: Staphylococcus aureus (Sa); experiment: Minimum inhibitory concentration (MIC) in nutrient agar, Staphylococcus aureus
Method: as §1, §2, §3, §4, §5

[6] = tested on: Pseudomonas aeruginosa (PRD-10); experiment: Minimum inhibitory concentration (MIC) in nutrient agar, Pseudomonas aeruginosa PRD-10; conditions: 48 h
Method: as §1, §2, §3, §4, §5

[7] = tested on: Enterobacter aerogenes (Ea); experiment: Minimum inhibitory concentration (MIC) in nutrient agar, Enterobacter aerogenes; conditions: Klebsiella aerogenes, 48 h
Method: as §1, §2, §3, §4, §5

[8] = tested on: Saccharomyces cerevisiae (Sc); experiment: Minimum inhibitory concentration (MIC) in malt yeast agar, Saccharomyces cerevisiae; conditions: pH 5.5, malt yeast agar, 30° C., 48 hours for yeast, read-out: Minimum Inhibitory Concentration, SC
Method: as §1, §6, §3, §7

Bacillus subtilis (Bs) = experiment: Minimum inhibitory concentration (MIC) in nutrient agar, Bacillus subtilis
Method: as §1, §2, §3, §4, §5

[9] = tested on: Aureobasidium pullulan (Ap); experiment: Minimum inhibitory concentration (MIC) in malt yeast agar, Aureobasidium pullulan; conditions: pH 5.5; malt yeast agar, 30° C.; read-out: Minimum Inhibitory Concentration, Ap
Method: as §1, §6, §3, §7

Escherichia coli (Ec) = experiment: Minimum inhibitory concentration (MIC) in nutrient agar, Escherichia coli; conditions: 48 h
Method: as §1, §2, §3, §4, §5

[10] = 48 h, pH 8.2, read-out: Minimum Inhibitory Concentration, Kp
[11] = pH 6.8, nutrient agar, 30° C., 48 hours, read-out: Minimum Inhibitory Concentration, Kp
[12] = pH 6.8, read-out: Minimum Inhibitory Concentration, Pv
[13] = pH 8.2, read-out: Minimum Inhibitory Concentration, Pv
[14] = pH 6.8, read-out: Minimum Inhibitory Concentration, SC
[15] = pH 8.2, read-out: Minimum Inhibitory Concentration, SC
[16] = pH 6.8, read-out: Minimum Inhibitory Concentration, PRD
[17] = pH 8.2, read-out: Minimum Inhibitory Concentration, PRD
[18] = pH 6.8, read-out: Minimum Inhibitory Concentration, Ea
[19] = pH 8.2, read-out: Minimum Inhibitory Concentration, Ea
[20] = 48 h, pH 8.2, read-out: Minimum Inhibitory Concentration, Bs
[21] = pH 6.8, nutrient agar, 30° C., 48 hours, read-out: Minimum Inhibitory Concentration, Bs
[22] = pH 6.8, read-out: Minimum Inhibitory Concentration, Ec
[23] = pH 8.2, read-out: Minimum Inhibitory Concentration, Ec

Row | SMILES | MIC [1, 10] | MIC [1, 11] | MIC (Proteus vulgaris (Pv); [12]) | MIC (Proteus vulgaris (Pv); [13]) | MIC [2] | MIC (Fusarium oxysporum (Fo)) | MIC [3, 14] | MIC [3, 15] | MIC ([4]; pH 6.8, nutrient agar) | MIC ([4]; pH 8.2, nutrient agar) | MIC [6, 16] | MIC [6, 17] | MIC [7, 18] | MIC [7, 19] | MIC [8] | MIC (Bacillus subtilis (Bs); [20]) | MIC (Bacillus subtilis (Bs); [21]) | MIC [9] | MIC (Escherichia coli (Ec); [22]) | MIC (Escherichia coli (Ec); [23]) | also measured
1 | CSc1ccc(-c2nsnc2SC#N)cc1 [Example IX, 4-(4-Methylthiophenyl)-3-thiocyanato-1,2,5-thiadiazole] | 500 µg/mL (≈ 1880 µM) | > 500 µg/mL | > 500 µg/mL | 500 µg/mL (≈ 1880 µM) | < 10 µg/mL | < 10 µg/mL | > 500 µg/mL | 500 µg/mL (≈ 1880 µM) | > 500 µg/mL | 500 µg/mL (≈ 1880 µM) | > 500 µg/mL | 500 µg/mL (≈ 1880 µM) | > 500 µg/mL | 500 µg/mL (≈ 1880 µM) | < 10 µg/mL | 250 µg/mL (≈ 942 µM) | < 10 µg/mL | < 10 µg/mL | > 500 µg/mL | 500 µg/mL (≈ 1880 µM) | MIC (Aspergillus niger (An); pH 5.5, malt yeast agar, 30° C., 72 hours for fungi, read-out: Minimum Inhibitory Concentration, An): < 10 µg/mL; MIC (Candida albicans (Ca); 48 h, pH 5.5, read-out: Minimum Inhibitory Concentration, Ca): 50 µg/mL (≈ 188 µM); MIC (Trichoderma viride (Tv)): < 10 µg/mL; MIC ([5]; 48 h, pH 6.8, read-out: Minimum Inhibitory Concentration, Sa): 50 µg/mL (≈ 188 µM); MIC ([5]; pH 8.2, nutrient agar, 30° C., 48 hours, read-out: Minimum Inhibitory Concentration, Sa): 250 µg/mL (≈ 942 µM)
2 | COC(=O)c1ccc(-c2nsnc2SC#N)cc1 [Example XII] | 500 µg/mL (≈ 1800 µM) | 500 µg/mL (≈ 1800 µM) | 500 µg/mL (≈ 1800 µM) | 500 µg/mL (≈ 1800 µM) | 100 µg/mL (≈ 361 µM) | 10 µg/mL (≈ 36.1 µM) | 500 µg/mL (≈ 1800 µM) | 500 µg/mL (≈ 1800 µM) | 500 µg/mL (≈ 1800 µM) | 500 µg/mL (≈ 1800 µM) | 500 µg/mL (≈ 1800 µM) | 500 µg/mL (≈ 1800 µM) | 500 µg/mL (≈ 1800 µM) | 500 µg/mL (≈ 1800 µM) | 10 µg/mL (≈ 36.1 µM) | 500 µg/mL (≈ 1800 µM) | 25 µg/mL (≈ 90.1 µM) | 10 µg/mL (≈ 36.1 µM) | 500 µg/mL (≈ 1800 µM) | 500 µg/mL (≈ 1800 µM) | MIC (Aspergillus niger (An); 72 h, pH 5.5, read-out: Minimum Inhibitory Concentration, An): 25 µg/mL (≈ 90.1 µM); MIC (Candida albicans (Ca); pH 5.5, malt yeast agar, 30° C., 48 hours for yeast, read-out: Minimum Inhibitory Concentration, Ca): 10 µg/mL (≈ 36.1 µM); MIC ([5]; 48 h, pH 8.2, read-out: Minimum Inhibitory Concentration, Sa): 500 µg/mL (≈ 1800 µM); MIC ([5]; pH 6.8, nutrient agar, 30° C., 48 hours, read-out: Minimum Inhibitory Concentration, Sa): 500 µg/mL (≈ 1800 µM)
